Assay results reported in patent publication US6562854B2, “Compositions comprising a substituted benzimidazole useful for treating immunomediated inflammatory disorders” (Axys Pharmaceuticals, Inc., priority 1994, dated 2003).

Legend:
antigen challenged sheep = test: Sheep Model of Asthma (allergic sheep, antigen challenge); assay type: in vivo
Text: The allergic sheep model of asthma was employed for the in vivo evaluation of the compounds of the invention as antiasthmatics. These methods have been published previously (see Abraham et al. (1983) Am. Rev. Respir. Dis. 128:839-844; Allegra et al. (1983) J. Appl. Physiol. 55:726-730; Russi et al. (1985) J. Appl. Physiol. 59:1416-1422; Soler et al. ((1989) J. Appl. Physiol. 67:406-413. Each sheep serves as its own control. Body weights for these animals ranged from 20-50 kilograms.
In these studies, 1 mg of Compound 13 was dissolved in 3 mL distilled water, and the total solution delivered as an aerosol 0.5 hours before, 4 hours after, and 24 hours after antigen challenge (total dose=1 mg; n=3).
Twenty-four hours after antigen challenge in both the control and drug trial, the sheep developed airway hyper-responsiveness. Airway hyper-responsiveness is expressed as PC400, the concentration of carbachol that causes a 400% increase in SRL; therefore, a decrease in PC400 indicates hyper-responsiveness. […] The number of breath units fell to 7 for those animals in the control group.

[1] = system: tryptase purified from human lung or skin tissue preparations or human mast cell line (HMC-1); test: In vitro Tryptase Inhibition Assay; assay type: biochemical; settings: substrate tosyl-Gly-Pro-Lys-p-nitroanilide; Tris-HCl pH 8.2; zinc chloride 150 μM; 1 hour preincubation at room temperature; read-out: Ki (apparent inhibition constant, tryptase inhibitory activity)
Procedure: Tryptase solution ([…]) was prepared by dissolving tryptase purified from human lung or skin tissue preparations or human mast cell line (HMC-1) or obtained from commercial sources, e.g., ICN Biomeidals, Irvine, Calif., Athens Research & Technology, Athens, Ga., etc., in a solvent mixture comprising: 10 mM 2-N-morpholinoethane sulfonic acid, 2 mM CaCl2, 20% glycerol and 50 µg/mL heparin. Substrate solution containing 2 mM synthetic tripeptide (tosyl-Gly-Pro-Lys-p-nitroanilide) was obtained from Sigma. Test Compound solutions were prepared by diluting a stock solution (1 mg of test Compound in 200 μL of dimethylsulfoxide (DMSO)) by ten-fold into assay buffer (comprising: Tris-HCl (pH 8.2), 50 mM; NaCl, 100 MM; 0.05% polyoxyethylenesorbitan monolaurate (Tween-20®); and zinc chloride, 150 μM) and then making seven additional three-fold dilutions into 10% DMSO in assay buffer.
Aliquots (50 μL) from each of the eight dilutions of test compound solution were added to separate wells in a 96-well U-bottom microtiter plate. Typtase solution (25 μL) was added to each well and the solutions were mixed 1 hour at room temperature. Substrate solution (25 μL) was added to initiate the enzymatic reaction and the microtiter plates were immediately transferred to a UVIMAX Kinetic Microplate Reader (Molecular Devices). The hydrolysis of the chromogenic substrate was followed spectrophotometrically at 405 nanometers for five minutes. Initial velocity measurements were calculated from the progress curves by kinetic analysis program (BatchKi; Petr Kuzmic, University of Wisconsin, Madison, Wis.). Apparent inhibition constants (K) were calculated from the enzyme progress curves using standard mathematical models.

SMILES: NCc1ccc2[nH]c(Cc3nc4cc(C(=O)NCCc5cccc6ccccc56)ccc4[nH]3)nc2c1 [Compound 13]
- PC400 (airway hyper-responsiveness; concentration of carbachol that causes a 400% increase in SRL) (antigen challenged sheep; 24 hours after antigen challenge, 1 mg aerosol 0.5 hours before, 4 hours after and 24 hours after challenge, n=3, baseline 15, control group fell to 7): ~15 breath units
- airway function (antigen challenged sheep; antigen challenged sheep, aerosol treatment): significant improvement in airway function
- onset of airway hyper-responsiveness (antigen challenged sheep; antigen challenged sheep, aerosol, 24 hours after challenge): block the onset of hyper-responsiveness

SMILES: N=C(N)Nc1ccc2[nH]c(Cc3nc4ccc(C(=O)NCCc5cccc6ccccc56)cc4n3CC(O)CO)nc2c1 (stereo not drawn) [Compound 132, 2-(5-guanidino-1H-benzoimidazol-2-ylmethyl)-3-(2,3-dihydroxy)propyl-N-(2-naphth-1-ylethyl)-3H-benzoimidazole-5-carboxamide]
- Ki [1]: 0.02 nM

SMILES: CCOC(=O)c1ccccc1OCCNC(=O)c1ccc2nc(C(C)c3nc4c([nH]3)CCN(C(C)=N)C4)n(C)c2c1 (stereo not drawn) [Compound 182, ethyl 2-[2-(2-{1-[5-(1-iminoethyl)-4,5,6,7-tetrahydro-1H-imidazo[4,5-c]pyridin-2-yl]ethyl}-3-methyl-3H-benzoimidazol-5-ylcarbonylamino)ethoxy]benzoate]
- Ki [1]: 4 nM

SMILES: CC(=N)N1CCc2[nH]c(Cc3nc4ccc(C(=O)NCCc5cccc6ccccc56)cc4n3C)nc2C1 [Compound 115, 2-[5-(1-iminoethyl)-4,5,6,7-tetrahydro-1H-imidazo[4,5-c]pyridin-2-ylmethyl]-3-methyl-N-(2-naphth-1-ylethyl)-3H-benzoimidazole-5-carboxamide]
- Ki [1]: 3 nM

SMILES: CC(=N)N1CCc2[nH]c(C(C)c3nc4ccc(C(=O)NCCOc5ccccc5-c5nnn[nH]5)cc4n3C)nc2C1 (stereo not drawn) [Compound 225, 2-{1-[5-(1-iminoethyl)-4,5,6,7-tetrahydro-1H-imidazo[4,5-c]pyridin-2-yl]ethyl}-3-methyl-N-[2-(2-tetrazolylphenoxy)ethyl]-3H-benzoimidazole-5-carboxamide]
- Ki [1]: 8 nM

SMILES: Cn1c(Cc2nc3c([nH]2)CCC(CN)C3)nc2ccc(C(=O)NCCc3cccc4ccccc34)cc21 (stereo not drawn) [Compound 112, 2-(5-aminomethyl-4,5,6,7-tetrahydro-1H-benzoimidazol-2-ylmethyl)-3-methyl-N-(2-naphth-1-ylethyl)-3H-benzoimidazole-5-carboxamide]
- Ki [1]: 0.05 nM

SMILES: CC(=N)N1CCc2[nH]c(Cc3nc4ccc(C(=O)NCCc5c(O)ccc6ccccc56)cc4n3C)nc2C1 [Compound 127, 2-[5-(1-iminoethyl)-4,5,6,7-tetrahydro-1H-imidazo[4,5-c]pyridin-2-ylmethyl]-3-methyl-N-[2-(2-hydroxynaphth-1-yl)ethyl]-3H-benzoimidazole-5-carboxamide]
- Ki [1]: 6 nM

SMILES: CC(c1nc2cc(NC(=N)N)ccc2[nH]1)c1nc2ccc(C(=O)NCCOc3ccc(Cl)cc3C(=O)O)cc2n1C (stereo not drawn) [Compound 252, 5-chloro-2-(2-{2-[1-(5-guanidino-1H-benzoimidazol-2-yl)ethyl]-3-methyl-3H-benzoimidazol-5-ylcarbonylamino}ethoxy)benzoic acid]
- Ki [1]: 0.4 nM

SMILES: CCCOC(=O)c1ccccc1OCCNC(=O)c1ccc2nc(C(C)c3nc4cc(O)ccc4[nH]3)n(C)c2c1 (stereo not drawn) [Compound 42, propyl 2-(2-{2-[1-(5-hydroxy-1H-benzoimidazol-2-yl)ethyl]-3-methyl-3H-benzoimidazol-5-ylcarbonylamino}ethoxy)benzoate]
- Ki [1]: 8 nM

SMILES: CC(=N)N1CCc2[nH]c(C(C)c3nc4ccc(C(=O)NCCc5cccc6ccccc56)cc4n3C)nc2C1 (stereo not drawn) [Compound 169, 2-{1-[5-(1-iminoethyl)-4,5,6,7-tetrahydro-1H-imidazo[4,5-c]pyridin-2-yl]ethyl}-3-methyl-N-(2-naphth-1-ylethyl)-3H-benzoimidazole-5-carboxamide]
- Ki [1]: 1 nM
